Data on one compound can be found in patent publication US20220249413A1, “SWELL 1 MODULATORS FOR TREATMENT OF NON-ALCOHOLIC FATTY LIVER DISEASE, IMMUNE DEFICIENCIES, MALE INFERTILITY AND VASCULAR DISEASES” (priority 2019, published 2022).

The nature of assay [1]: Glucose-stimulated insulin secretion (plasma insulin and islet perifusion). It is filed as in vivo, mouse. Particulars: 21 weeks HFD mice.
Another assay deals with SWELL1 protein. As to the kind of experiment: SWELL1 protein expression by Western blot in 3T3-F442A preadipocytes and adipocytes. The following applies: 10 μM applied for 96 hours. It is filed as cell-based. How it is done:
(§1) For Smod1 (DCPIB) mediated induction of SWELL1 and insulin signaling studies in 3T3-F442A preadipocytes, the cells were incubated with either vehicle (DMSO) or 10 μM Smod1 for 96 h. The cells were serum starved for 6 h (+DMSO or Smod1) and stimulated with 0, 3 and 10 nM insulin containing media (−DMSO or Smod1), as described above for 15 mins and the lysates were collected. In the case of 3T3-F442A adipocytes, the WT and KO cells were treated with either vehicle (DMSO) or 10 μM Smod1 following 7-11 days of differentiation for 96 h and then stimulated with 0 and 10 nM insulin for 15 min, as described above. Human embryonic kidney (HEK) cells were cultured and maintained in 90% DMEM (25 mM D-Glucose and 4 mM L-Glutamine) containing 10% fetal bovine serum (FBS) and 100 IU penicillin and 100 μg/ml streptomycin media.
Electrophysiology Patch-clamp recordings of β-cells and mature adipocytes were performed as described previously (Zhang et al., Nat Cell Biol, 19, 504-517, 2017; Kang et al., Nature Communications, 9, 367, 2018). 3T3-F442A WT and KO preadipocytes were prepared as described in the Cell culture section above. […] Recordings were measured using Axopatch 200B amplifier paired to a Digidata 1550 digitizer using pClamp 10.4 software. […] The images were further analyzed for band intensities using ImageJ software. […]
(A western blot detects proteins with antibodies after separation by electrophoresis.)

In a further assay the target is T1, VRAC/ICl,SWELL (Homo sapiens, UniProt Q8IWT6).
T1 sequence (Q8IWT6 1-810): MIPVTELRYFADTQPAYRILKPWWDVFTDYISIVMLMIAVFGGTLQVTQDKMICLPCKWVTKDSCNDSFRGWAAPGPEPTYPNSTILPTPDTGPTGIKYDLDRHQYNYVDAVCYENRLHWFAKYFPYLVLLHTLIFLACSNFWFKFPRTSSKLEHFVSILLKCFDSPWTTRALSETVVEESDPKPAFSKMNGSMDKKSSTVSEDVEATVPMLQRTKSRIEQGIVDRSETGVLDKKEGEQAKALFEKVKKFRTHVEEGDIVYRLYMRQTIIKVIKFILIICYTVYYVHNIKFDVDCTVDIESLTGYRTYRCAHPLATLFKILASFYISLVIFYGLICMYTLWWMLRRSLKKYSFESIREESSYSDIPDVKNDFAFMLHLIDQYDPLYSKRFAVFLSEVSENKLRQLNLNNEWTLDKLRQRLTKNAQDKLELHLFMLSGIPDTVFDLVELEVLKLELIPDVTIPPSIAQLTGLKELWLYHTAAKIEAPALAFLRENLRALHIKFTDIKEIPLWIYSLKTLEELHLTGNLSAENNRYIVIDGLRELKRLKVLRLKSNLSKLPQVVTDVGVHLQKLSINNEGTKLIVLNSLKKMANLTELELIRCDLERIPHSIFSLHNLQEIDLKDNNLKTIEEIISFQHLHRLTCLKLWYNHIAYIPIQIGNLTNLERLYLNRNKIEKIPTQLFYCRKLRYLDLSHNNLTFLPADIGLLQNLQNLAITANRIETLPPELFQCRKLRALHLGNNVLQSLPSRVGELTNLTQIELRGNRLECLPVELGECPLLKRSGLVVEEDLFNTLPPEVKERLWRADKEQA
Particulars: read-out: IC50 as VRAC/ICl,SWELL inhibitor; cited from earlier work.

Assay [2] relates to insulin-AKT2-AS160 signaling. The assay is described as follows: Insulin-stimulated pAKT2/pAS160 signaling in 3T3-F442A cells (Western blot). It is filed as cell-based. On the procedure:
as §1
Electrophysiology Patch-clamp recordings of β-cells and mature adipocytes were performed as described previously (Zhang et al., Nat Cell Biol, 19, 504-517, 2017; Kang et al., Nature Communications, 9, 367, 2018). 3T3-F442A WT and KO preadipocytes were prepared as described in the Cell culture section above. For SWELL1 overexpression recordings, preadipocytes were first transduced with Ad5-CAG-LoxP-stop-LoxP-3× Flag-SWELL1 (MOI 12) in 2% FBS culture medium for two days and then overexpression induced by adding Ad5-CMV-Cre-wt-IRES-eGFP (MOI 10-12) in 2% FBS culture medium for two more days and changed to 10% FBS containing culture media and were selected based on GFP expression (˜2-3 days). For 3-cell recordings, islets were transduced with Ad-RIP2-GFP and then dispersed after 48-72 hours for patch-clamp experiments. GFP+ cells marked […] selected for patch-clamp recordings. Recordings were measured using Axopatch 200B amplifier paired to a Digidata 1550 digitizer using pClamp 10.4 software. The extracellular buffer composition for hypotonic stimulation contains 90 mM NaCl, 2 mM CsCl, 1 mM MgCl2, 1 mM CaCl2), 10 mM HEPES, 10 mM Mannitol, pH 7.4 with NaOH (210 mOsm/kg). […] The images were further analyzed for band intensities using ImageJ software. […]

Consider `CCCCC1(C2CCCC2)Cc2cc(OCCCC(=O)O)c(Cl)c(Cl)c2C1=O` (stereo not shown) [Smod1, 4-[(2-Butyl-6,7-dichloro-2-cyclopentyl-2,3-dihydro-1-oxo-1H-inden-5-yl)oxy]butanoic acid], for which, in assay [1], the “glucose-stimulated insulin secretion (GSIS), serum insulin and perifusion of isolated islets” value was “significantly improved”. The “increase of SWELL1 protein expression” value in the assay on SWELL1 protein (3T3-F442A adipocytes) is 1.5 fold; in the assay on SWELL1 protein (3T3-F442 preadipocytes), “β”. The IC50 on VRAC/ICl,SWELL was 2 to 4 µM. Also, the “effects on insulin-AKT2-AS160 signaling in SWELL1 KO” value in assay [2] (SWELL1 KO 3T3-F442A adipocytes) is “absent”. For the same compound, in assay [2] (WT 3T3-F442A adipocytes, 10 μM for 96 h), the “insulin-stimulated pAS160” value is “enhanced”. The “insulin-stimulated pAKT2” value in assay [2] (WT 3T3-F442A preadipocytes/adipocytes, 10 μM for 96 h) is recorded as “enhanced”.
